In the experiment the test system is Ps. aeruginosa. Nature of the experiment: preservative for cutting oil emulsions. It counts as cell-based. As to conditions: for MIC: Pseudomonas aeruginosa; for Minimum Inhibitory Concentration: listed as CH3, Cl, H. As to the method: Various aliquots of a 6% solution of the chemical in ethanol were added to cutting oil emulsions prepared by diluting Kutwell 30 cutting oil concentrate 1 to 30 with water. These samples were inoculated with a culture of Ps. aeruginosa and incubated at 28° on a rotary shaker. At weekly intervals the samples were examined for microorganisms and then reinoculated and incubated.

Setting [1] is: 168 h, cutting oil emulsion, incubation 1 week, 28°, read-out: Minimum Inhibitory Concentration.
Setting [2] is: 336 h, cutting oil emulsion, incubation 2 weeks, 28°, read-out: Minimum Inhibitory Concentration.
Setting [3] is: 504 h, cutting oil emulsion, incubation 3 weeks, 28°, read-out: Minimum Inhibitory Concentration.
Where [4] appears, read: 672 h, cutting oil emulsion, incubation 4 weeks, 28°, read-out: Minimum Inhibitory Concentration.
Setting [5] is: 168 h, read-out: Minimum Inhibitory Concentration, cutting oil emulsion, incubation 1 week, 28°.
Where [6] appears, read: 336 h, read-out: Minimum Inhibitory Concentration, cutting oil emulsion, incubation 2 weeks, 28°.
[7] abbreviates: 504 h, read-out: Minimum Inhibitory Concentration, cutting oil emulsion, incubation 3 weeks, 28°.
Where [8] appears, read: 672 h, read-out: Minimum Inhibitory Concentration, cutting oil emulsion, incubation 4 weeks, 28°.

≈ marks a conversion by molar mass, not a printed value. Read-outs that look alike come from different tables or passages of the source.

Take `CCn1sc(Cl)c(Cl)c1=S` [No. 2 (Table VIII)]: the MIC was found to be 16 µg/mL (≈ 74.7 µM) under setting [1], 32 µg/mL (≈ 149 µM) under setting [2], 62 µg/mL (≈ 290 µM) under setting [3] and 62 µg/mL (≈ 290 µM) under setting [4].

For the compound `Cn1sccc1=S` [No. 3 (Table VIII)], the MIC under setting [5] turned out to be 125 µg/mL (≈ 953 µM), the MIC under setting [6] is 250 µg/mL (≈ 1910 µM), the MIC under setting [7] is 250 µg/mL (≈ 1910 µM) and the MIC under setting [8] stood at 250 µg/mL (≈ 1910 µM).

As for `C[n+]1sc(Cl)c(Cl)c1Cl.O=S(=O)([O-])C(F)(F)F` [No. 4 (Table I), 2-Methyl-3,4,5-trichloroisothiazolium trifluoromethane sulfonate], the MIC runs as follows: under setting [5], 2 µg/mL; under setting [6], 2 µg/mL; under setting [7], 16 µg/mL; under setting [8], 64 µg/mL.

Turning to `Cn1scc(Cl)c1=S` [No. 4 (Table VIII)], the MIC under setting [5] was less than 32 µg/mL, the MIC under setting [6] was determined as 62 µg/mL (≈ 374 µM), the MIC under setting [7] is 62 µg/mL (≈ 374 µM) and the MIC under setting [8] stood at 62 µg/mL (≈ 374 µM).

With `CCOC(=O)c1sn(C)c(=S)c1Cl` [No. 5 (Table VIII)], the MIC is 250 µg/mL (≈ 1050 µM) under setting [1], 125 µg/mL (≈ 526 µM) under setting [2], 125 µg/mL (≈ 526 µM) under setting [3] and 62 µg/mL (≈ 261 µM) under setting [4].

Consider `Cn1sc(C#N)c(Cl)c1=S` [No. 6 (Table VIII)], for which the MIC amounted to 16 µg/mL (≈ 83.9 µM) under setting [1], 125 µg/mL (≈ 656 µM) under setting [2], 250 µg/mL (≈ 1310 µM) under setting [3] and 250 µg/mL (≈ 1310 µM) under setting [4].

Turning to `CC[n+]1sc(Cl)c(Cl)c1Cl.F[B-](F)(F)F` [No. 7 (Table I), 2-Ethyl-3,4,5-trichloroisothiazolium tetrafluoroborate], the MIC stood at 4 µg/mL under setting [1], 8 µg/mL under setting [2], 8 µg/mL under setting [3] and 32 µg/mL under setting [4].

Take `CCC[n+]1sc(Cl)c(Cl)c1Cl.O=S(=O)([O-])C(F)(F)F` [No. 10 (Table I), 2-Propyl-3,4,5-trichloroisothiazolium trifluoromethane sulfonate]: the MIC runs as follows: under setting [1], less than 32 µg/mL; under setting [2], less than 32 µg/mL; under setting [3], less than 32 µg/mL; under setting [4], less than 32 µg/mL.

For the compound `C[n+]1sccc1Cl` [No. 13 (Table I), 3-Chloro-2-methylisothiazolium fluorosulfonate], the “Minimum Inhibitory Concentration” value runs as follows: (cutting oil emulsion, incubation 1 week, 28°, O3SF) 32 µg/mL; (cutting oil emulsion, incubation 2 weeks, 28°, O3SF) 32 µg/mL; (cutting oil emulsion, incubation 3 weeks, 28°, O3SF) 32 µg/mL; (cutting oil emulsion, incubation 4 weeks, 28°, O3SF) 32 µg/mL.

Turning to `C[n+]1sccc1Cl` [No. 14 (Table I)], the “Minimum Inhibitory Concentration” value is 64 µg/mL (cutting oil emulsion, incubation 1 week, 28°, O3SOMe); 64 µg/mL (cutting oil emulsion, incubation 2 weeks, 28°, O3SOMe); 64 µg/mL (cutting oil emulsion, incubation 3 weeks, 28°, O3SOMe); 64 µg/mL (cutting oil emulsion, incubation 4 weeks, 28°, O3SOMe).

Turning to `C[n+]1sccc1Cl.O=[N+]([O-])[O-]` [No. 15 (Table I), 2-Methyl-3-chloroisothiazolium nitrate], the MIC stood at 8 µg/mL under setting [5], 8 µg/mL under setting [6], 8 µg/mL under setting [7] and 8 µg/mL under setting [8].

With `C[n+]1sccc1Cl` [No. 16 (Table I)], the “Minimum Inhibitory Concentration” value (cutting oil emulsion, incubation 1 week, 28°, SbCl6) came out at 8 µg/mL; the “Minimum Inhibitory Concentration” value (cutting oil emulsion, incubation 2 weeks, 28°, SbCl6) turned out to be 16 µg/mL; the “Minimum Inhibitory Concentration” value (cutting oil emulsion, incubation 3 weeks, 28°, SbCl6) was determined as 16 µg/mL; the “Minimum Inhibitory Concentration” value (cutting oil emulsion, incubation 4 weeks, 28°, SbCl6) is 16 µg/mL.

Take `C[n+]1sccc1Cl` [No. 17 (Table I)]: the “Minimum Inhibitory Concentration” value is, setting by setting: (cutting oil emulsion, incubation 1 week, 28°, PF6) 32 µg/mL; (cutting oil emulsion, incubation 2 weeks, 28°, PF6) 32 µg/mL; (cutting oil emulsion, incubation 3 weeks, 28°, PF6) 32 µg/mL; (cutting oil emulsion, incubation 4 weeks, 28°, PF6) 32 µg/mL.

With `CC[n+]1sccc1Cl` [No. 18 (Table I), 3-Chloro-2-ethylisothiazolium ethylsulfate], the MIC reads like this: under setting [5], 125 µg/mL; under setting [6], 125 µg/mL; under setting [7], 125 µg/mL; under setting [8], 500 µg/mL.

With `CCC[n+]1sccc1Cl` [No. 20 (Table I)], the MIC under setting [5] was determined as 125 µg/mL, the MIC under setting [6] is 250 µg/mL, the MIC under setting [7] is 250 µg/mL and the MIC under setting [8] amounted to 500 µg/mL.

Regarding `C[n+]1scc(Cl)c1Cl` [No. 23 (Table I)], the “Minimum Inhibitory Concentration” value by setting is: (cutting oil emulsion, incubation 3 weeks, 28°, Cl, O3SOMe) 32 µg/mL; (cutting oil emulsion, incubation 4 weeks, 28°, Cl, O3SOMe) 32 µg/mL.

As for `CCOC(=O)c1s[n+](C)c(Cl)c1Cl` [No. 24 (Table I), 3,4-Dichloro-2-methyl-5-ethoxycarbonylisothiazolium fluorosulfonate], the MIC under setting [1] amounted to 125 µg/mL, the MIC under setting [2] was 250 µg/mL, the MIC under setting [3] is 250 µg/mL and the MIC under setting [4] is 250 µg/mL.

On to `C[n+]1sc(C#N)c(Cl)c1Cl` [No. 25 (Table I), 5-Cyano-3,4-dichloro-2-methylisothiazolium fluorosulfonate], for which the MIC is less than 16 µg/mL under setting [1], 125 µg/mL under setting [2], 250 µg/mL under setting [3] and 250 µg/mL under setting [4].

For the compound `Cc1s[n+](C)c(Cl)c1Cl` [No. 27 (Table I), 3,4-Dichloro-2,5-dimethylisothiazolium fluorosulfonate], the MIC is, setting by setting: under setting [5], 125 µg/mL; under setting [6], 250 µg/mL; under setting [7], 500 µg/mL; under setting [8], 500 µg/mL.

Consider `C[n+]1scc([N+](=O)[O-])c1Cl` [No. 28 (Table I)], for which the MIC reads like this: under setting [1], 125 µg/mL; under setting [2], 500 µg/mL; under setting [3], 500 µg/mL; under setting [4], 500 µg/mL.

In the case of `CCN1SC=CC1=C(C#N)C#N` [drawing 12 CH2CH3, H, H], the MIC turned out to be 125 µg/mL (≈ 705 µM) under setting [1], 250 µg/mL (≈ 1410 µM) under setting [2], 250 µg/mL (≈ 1410 µM) under setting [3] and 500 µg/mL (≈ 2820 µM) under setting [4].

In the case of `CC1=C(Cl)C(=C(C#N)C#N)N(C)S1` [drawing 12 CH3, Cl, CH3], the MIC was determined as 250 µg/mL (≈ 1180 µM) under setting [1], 500 µg/mL (≈ 2360 µM) under setting [2], 500 µg/mL (≈ 2360 µM) under setting [3] and 1000 µg/mL (≈ 4720 µM) under setting [4].

As for `CN1SC(C#N)=C(Cl)C1=C(C#N)C#N` [drawing 12 CH3, Cl, CN], the MIC was 62 µg/mL (≈ 278 µM) under setting [1], 250 µg/mL (≈ 1120 µM) under setting [2], 250 µg/mL (≈ 1120 µM) under setting [3] and 250 µg/mL (≈ 1120 µM) under setting [4].

As to `CCOC(=O)C1=C(Cl)C(=C(C#N)C#N)N(C)S1` [drawing 12 CH3, Cl, COOEt, 4-Chloro-3-dicyanomethylene-5-ethoxycarbonyl-2-methyl-4-isothiazoline], the MIC reads like this: under setting [1], 125 µg/mL (≈ 463 µM); under setting [2], 125 µg/mL (≈ 463 µM); under setting [3], 125 µg/mL (≈ 463 µM); under setting [4], 125 µg/mL (≈ 463 µM).

For the compound `CN1SC=C(Cl)C1=C(C#N)C#N` [drawing 12 CH3, Cl, H], the MIC under setting [1] was less than 32 µg/mL, the MIC under setting [2] is less than 32 µg/mL, the MIC under setting [3] was less than 32 µg/mL and the MIC under setting [4] is less than 32 µg/mL.

Consider `CN1SC=CC1=C(C#N)C#N` [drawing 12 CH3, H, H], for which the MIC runs as follows: under setting [1], 250 µg/mL (≈ 1530 µM); under setting [2], 500 µg/mL (≈ 3060 µM); under setting [3], 500 µg/mL (≈ 3060 µM); under setting [4], 500 µg/mL (≈ 3060 µM).

For the origin of these results see patent US4281136A, “2-Alkyl-3-haloisothiazolium salts and their derivatives” (Givaudan Corporation, priority 1978, dated 1981).
